Test results from patent publication US11918686B2, “Lipid bilayer coated mesoporous silica nanoparticles with a high loading capacity for one or more anticancer agents” (The Regents of the University of California, priority 2013, dated 2024).

Experiments:
[1] = in the clinic; cited from earlier work
[2] = Histology of kidney, liver and spleen; type: in vivo, mice; details: H&E, day 38
Experimental: (§1) (A) The animal treatments are described in the method section. BxPC3 cells were subcutaneously injected into mice 7 days before treatments (gray boxes). These animals received six i.v. injections (red boxes) every 3-6 days (green boxes) for 38 days as shown. The tumor inhibition effect of two-wave treatment was compared to saline, GEM-Lip alone, free GEM, empty liposome, and TGFβi-MSNP. Tumor size was accurately measured 1-2 times per week. Tumor weight was calculated according to the formula Tumor weight (mg)=(length in mm)×(width in mm)2/2. *P<0.05, compared to GEM-Lip group. (B) The animal weights were recorded at indicate time points and expressed for the experimental duration. *P<0.05, compared to saline; #P<0.05, compared to GEM-Lip. (C) Histological analyses of kidney sections were performed by UCLA DLAM diagnostic laboratory services. The sections were stained with hematoxylin/eosin (H&E) and examined by light microscopy. Representative images are shown. Higher magnification images were provided to shown the swelling and edema occur in Bowman's space, a morphological abnormality of GEM-induced renal toxicity. White arrows point to normal Bowman's space in glomerulus, and the black arrows point to the swelling and edema occur in Bowman's space.
Appropriate size sections of the tumor, liver, kidney, and spleen were fixed in 10% formalin and then embedded into paraffin. […]

[3] = Animal body weight during treatment; type: in vivo, nude mice; details: compared to saline-treated BxPC3 tumor-bearing mice
Experimental: as §1, with “Higher magnification images were provided to shown the swelling and edema occur in Bowman's space, a morphological abnormality of GEM-induced renal toxicity. White arrows point to normal Bowman's space in glomerulus, and the black arrows point to the swelling and edema occur in Bowman's space.” left out
One week after tumor implantation, the BxPC-3 tumor-bearing mice were randomly divided into six groups. […] The body weight and tumor size were accurately recorded one to two times per week. Tumor weight was calculated according to the formula Tumor weight (mg)=(length in mm)×(width in mm)^2/2.

[4] = system: cytidine deaminase (CDA); BxPC3 cells; experiment: Protection against CDA-mediated GEM inactivation (MTS assay); type: cell-based, human; details: CDA 100 ng/mL, 1 h at 37° C., then BxPC3 cells 72 h
Experimental: We also assess the ability of the liposome to protect GEM against the effect of on cytidine deaminase (CDA), which plays a key role in drug inactivation (circulatory half-life of <8 minutes) in the clinic. Briefly, free GEM or GEM-laden liposomes were mixed with CDA enzyme at a concentration of 100 ng/mL in the incubation medium for 1 h at 37° C. The incubation media were then added to BxPC3 cells, which were cultured in 96 wells plate for 72 h. IC50 values were determined by the MTS assay for each group. The results were compared to the IC50 values for GEM or GEM-liposomes, not incubated with CDA. […] By contrast, free GEM was not protected against the effect of CDA.

Blood biochemistry = type: in vivo, mice; details: serum
Experimental: Following the animal experiments described above, the mice were sacrificed on the 38th day and serum was collected by centrifuging the whole blood at 5,000 rpm for 15 min. The biochemical parameters were assayed by UCLA Division of Laboratory Animal Medicine (DLAM) diagnostic laboratory services.

PDAC = details: previously untreated PDAC patients with metastatic disease; cited from earlier work
[5] = system: Smad2 phosphorylation in PCs; experiment: Smad2 activation assay (pSmad2 immunofluorescence); type: cell-based, human; details: PCs treated with 2 ng/mL TGF-β, inhibitor dose of 1 M
Experimental: (A) HDME cells (10^4 cells/mL) and HSM cells (5×10^3 cells/mL) were first stained by CellTracker™ Green CMFDA (Invitrogen, Grand Island, NY) and CellTracker™ Red CMTPX (Invitrogen, Grand Island, NY) according the manufacture's instruction 24 h before experiment. After live cell staining, ECs were treated with 2 ng/mL of TGF-β for 3 h and PCs were treated with […] or TGFβi-MSNP at inhibitor dose of 1 μM for 3 h. Subsequently, both cell types were co-cultured in Matrigel-coated 6-well plates for further incubation of 16 h at 37° C. PC/EC adhesions were quantitatively determined from five fields of three independent samples with the fluorescent microscope (Zeiss, Germany). *, P<0.05. (B) Use of immunofluorescence assay to determine the level of Smad2 phosphorylation. PCs were seeded in 8-well chamber slides. 16 h post cell seeding, PCs were treated with 2 ng/mL TGF-β for 3 h. Subsequently, the cells were treated with TGFβi-laden MSNP at the inhibitor dose of 1 M for 1-24 h. […] The slides were visualized under a fluorescence microscope. (C) The signal intensity of the green channel, reflecting activated Smad2 (pSmad2), was calculated by Image J software (version 1.37c, NIH). *, P<0.05.
Smad2 activation was determined using an immunofluorescent staining in 8-well chamber slides in which 4×10^4 PCs were cultured in each well containing 0.4 mL culture medium. […]

[6] = system: PC coverage of ECs in BxPC3 xenograft; experiment: CD31/NG2 co-staining of ECs and PCs in BxPC3 xenograft; type: in vivo, nude mice; details: i.v., inhibitor dose 1 mg/kg, tumor collected 1-2 h post injection
Experimental: “T” indicates tumor cells. Arrows point out stroma. (B) Tumor-bearing animals (tumor size of 0.8˜1.0 cm in diameter) were divided into two groups and received i.v. injection of TGFβi-MSNP at inhibitor dose of 1 mg/kg (MSNP dose of 2 mg/kg). Saline and i.v. injection of free inhibitor at same dose were used as control. Tumor tissues were quickly collected 1-2 h post injection and OCT embedded for frozen section and dual color immunohistochemistry staining. The procedure of the staining was provided in the method section. This dual color staining that labels EC maker CD31 in green (FITC) and PC maker NG2 in red (Alexa fluor 594) were used to compare the effect of tumor blood vessel integrity and quantify the extent of PC/EC association. Zoom-in images were provided at higher magnification to show the extent of PC/EC association in each group. PC covered EC were quantified in three random fields in each group. *, P<0.05. […]
The tumor tissues were rapidly embedded by OCT reagent before sectioning to provide 4 m thick slices. […] The slides were visualized under a fluorescence microscope. The PC coverage was counted from three randomly selected fields.

tumor = details: animal study; cited from earlier work

Nc1ccn([C@@H]2O[C@H](CO)[C@@H](O)C2(F)F)c(=O)n1 [Free GEM, gemcitabine]
circulatory half-life [1]: < 8 min | kidney histology (glomerular swelling and edema of Bowman's space) [2]: intermediate nephrotoxicity | body weight change [3]: reduced weight gain | protection of GEM against CDA [4]: not protected | ALB (Blood biochemistry; day 38): 3.2 ± 0.1 g/dL | ALP (Blood biochemistry; day 38): 55.8 ± 9.8 U/L | ALT (Blood biochemistry; day 38): 42.5 ± 33.8 U/L | AST (Blood biochemistry; day 38): 222 ± 178 U/L | BUN (Blood biochemistry; day 38): 38.0 ± 11.3 mg/dL | CA (Blood biochemistry; day 38): 9.4 ± 0.3 mg/dL | CHOL (Blood biochemistry; day 38): 58.7 ± 4.0 mg/dL | CK (Blood biochemistry; day 38): 512.0 ± 39.6 U/L | CO2 (Blood biochemistry; day 38): 20.5 ± 2.8 mEq/L | CREAT (Blood biochemistry; day 38): 0.2 ± 0.0 mg/dL | DBILI (Blood biochemistry; day 38): 0.7 ± 0.5 mg/dL | GGT (Blood biochemistry; day 38): 5.3 ± 1.155 U/L | GLU (Blood biochemistry; day 38): 128.3 ± 16.9 mg/dL | PHOS (Blood biochemistry; day 38): 6.1 ± 1 mg/dL | TBILI (Blood biochemistry; day 38): 0.5 ± 0.2 mg/dL | TP (Blood biochemistry; day 38): 5.1 ± 0.2 g/dL | BUN CR (Blood biochemistry; day 38, BUN-to-creatinine ratio): 191 ± 16 | median overall survival (PDAC): 6.7 months

c1ccc(-c2[nH]ncc2-c2ccnc3ccccc23)nc1 [LY364947]
duration of inhibition of Smad2 phosphorylation [5]: 6 h | composite fluorescence staining of PC overlap with ECs in tumor [6]: slight but non-significant reduction

CC(=O)O[C@H]1C(=O)[C@@]2(C)[C@H]([C@H](OC(=O)c3ccccc3)[C@]3(O)C[C@H](OC(=O)[C@H](O)[C@@H](NC(=O)c4ccccc4)c4ccccc4)C(C)=C1C3(C)C)[C@]1(OC(C)=O)CO[C@@H]1C[C@@H]2O [paclitaxel]
increase of GEM content in the tumor (tumor): 2.8 fold
